Measured values taken from ChEMBL document CHEMBL1146695 (Bioorg Med Chem Lett, 2004).

Legend:
[1] = biological target: Carbonic anhydrase 9 (Homo sapiens, UniProt Q16790)
Description: Compound was evaluated for inhibition against human carbonic anhydrase IX

[2] = biological target: Carbonic anhydrase 2 (Homo sapiens, UniProt P00918)
Description: Compound was evaluated for inhibition against human carbonic anhydrase II

[3] = biological target: T1, Carbonic anhydrase 4 (Bos taurus, UniProt Q95323)
T1 sequence (Q95323 whole entry): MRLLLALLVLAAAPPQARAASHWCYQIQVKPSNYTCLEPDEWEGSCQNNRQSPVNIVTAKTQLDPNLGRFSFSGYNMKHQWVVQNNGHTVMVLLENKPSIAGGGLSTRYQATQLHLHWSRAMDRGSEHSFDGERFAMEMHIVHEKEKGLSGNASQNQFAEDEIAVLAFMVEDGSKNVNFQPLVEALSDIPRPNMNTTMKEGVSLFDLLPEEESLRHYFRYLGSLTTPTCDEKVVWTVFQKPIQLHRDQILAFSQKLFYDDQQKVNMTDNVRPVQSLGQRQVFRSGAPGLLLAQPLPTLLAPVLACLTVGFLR
Description: Compound was evaluated for inhibition against bovine carbonic anhydrase IV

[4] = biological target: Carbonic anhydrase 1 (Homo sapiens, UniProt P00915)
Sequence of Carbonic anhydrase 1 (P00915 whole entry): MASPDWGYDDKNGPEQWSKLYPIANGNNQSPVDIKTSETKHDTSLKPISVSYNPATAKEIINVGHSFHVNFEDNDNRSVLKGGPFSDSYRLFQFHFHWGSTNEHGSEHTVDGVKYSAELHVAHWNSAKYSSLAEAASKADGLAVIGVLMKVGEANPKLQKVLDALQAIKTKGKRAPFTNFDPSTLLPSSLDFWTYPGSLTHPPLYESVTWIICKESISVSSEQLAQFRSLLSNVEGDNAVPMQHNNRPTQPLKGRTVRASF
Description: Compound was evaluated for inhibition against human carbonic anhydrase I

NS(=O)(=O)c1ccc(S(=O)(=O)Nc2cccc3[nH]cc(Cl)c23)cc1
Ki [1]: 24 nM
Ki [2]: 15 nM
Ki [3]: 65 nM
Ki [4]: 31 nM
